In patent US7148014B2, “Methods of inhibiting phagocytosis” (University of Pennsylvania, priority 1993, dated 2006):

Assays:
[1] = system: FcγRIIA mediated phagocytosis in monocytes; assay: Phagocytosis of IgG-sensitized RBCs (EA) by cultured monocytes treated with ODN-liposome complexes; assay type: cell-based, human; details: for phagocytic index (PI): untreated PI 220±8.8
Method: Monocytes (1×10^5 cells/ml) were incubated with complexes of 4 μg/ml of LIPOFECTAMINE and ODNs (1.0 μM each of the linear control or the linear Syk antisense ODNs, or 0.2 μM each of the stem-loop control or the stem-loop Syk antisense ODN) for 2 days, and the phagocytosis of IgG-sensitized red blood cells (EA) was examined. Phagocytic index (PI)=number of ingested RBCs/100 cells. Each bar represents the mean±SEM of three separate experiments.
(§1) Antisense or scrambled control ODNs were modified to be protected from nucleases. One phosphodiester backbone at the 5-prime terminus and two at the 3-prime terminus were modified with phosphorothioate. Prediction of secondary structures of Syk mRNA (Law et al, J. Biol. Chem. 269:12310 (1994)) and ODNs were carried out with the MacDNASIS program (Hitachi Software, San Bruno, Calif.) on a Macintosh computer. Linear 17 mer Syk antisense ODN, having the sequence of 5′-[…]-3′ (SEQ ID NO:9), targets the area surrounding the translation initiation codon of Syk mRNA. Stem-loop Syk antisense ODN is a 57 mer containing sequences complementary to three different target sites, target I (the area of the translation initiation, nucleotide no. 159 to 173) , target II (451 to 463) , and target III (802 to 816) of Syk mRNA (Law et al, J. Biol. Chem. 269:12310 (1994)) (FIG. 5). The stem-loop Syk antisense ODN forms a stem and loop structure by itself and was designed to contain minimal intramolecular secondary structures in the loop domain (FIG. 6) . The sequence of the stem-loop Syk antisense ODN is 5′ - […] C-3′ (SEQ ID NO:10). Linear 17 mer control ODN has a random sequence of 5′-[…]-3′ (SEQ ID NO:11). Stem-loop 61 mer control ODN has a random sequence of 5′ -[…]- 3′ (SEQ ID NO:12) within the loop domain. The linear and stem-loop control ODNs were also modified at both the 5-prime and 3-prime termini by phosphorothioates. Preparation of liposomes: One μg each of the control scrambled phosphodiester ODNs, the linear and stem-loop Syk antisense ODNs in 50 μl of PBS were incubated with 4 μg (2 μl) of LIPOFECTAMINE™ (GIBCO BRL, Life Technologies, Inc. Gaithersburg, Md.). The ODN-liposome complexes were allowed to form at the room temperature for 45 min. Monocytes isolation and culture: Peripheral blood mononuclear cells from healthy individuals were isolated by a standard adherence procedure (Darby et al, J. Immunol. 152:5429 (1994)). Briefly, the heparinized blood was centrifuged on Ficoll-Hypaque (Lymphocyte Separation Medium; Organon Teknika, Durham, N.C.) and interface cells were washed twice in PBS. Mononuclear cells were resuspended in complete medium containing RPMI 1640 (GIBCO BRL, Life Technologies, Inc. Gaithersburg, Md.) with 10% heat-inactivated FCS and 2 mM L-glutamine. Cells were allowed to adhere at 37° C. onto tissue culture flasks precoated with FCS. After 45 to 90 min non-adherent cells were removed with extensive washing in HBSS. Cells were harvested by vigorous agitation. The yield of monocytes ranged from 2–6×10^7 cells/500 ml of blood. Monocytes were routinely more than 98% viable judged by trypan blue exclusion. Isolated monocytes were maintained in RPMI 1640 supplemented with L-glutamine (2 mM) and 10% heat-inactivated FCS at 37° C. with 5% CO2. Oligodeoxynucleotides treatment of cells. 1×10^5 Monocytes were incubated with ODN-liposome complexes containing 2 μg/ml of LIPOFECTAMINE and 0.5 μM of the linear control, 0.5 μM of the linear Syk antisense ODN or 0.1 μM of the stem-loop control, 0.1 μM of the stem-loop Syk antisense ODN in 0.3 ml of RPMI 1640 medium without FCS in a 24-well plate (Falcon; Becton Dickinson Labware, Lincoln Park, N.J.) at 37° C. for 4 h. Medium was added to a 1 ml final volume with RPMI 1640 containing 10% FCS and cells were then incubated at 37° C. for 2 days. […]

[2] = system: Syk mRNA; assay: RT-PCR / Southern hybridization of Syk mRNA in monocytes; assay type: cell-based, human; details: 2 days
Method: FIG. 8. Effect of Syk antisense ODNs on Syk mRNA in monocytes. Total RNA was isolated from monocytes (1×10^5 cells/ml) treated with complexes of 4 μg/ml of LIPOFECTAMINE and the ODNs (1.0 μM each of the linear control or the linear Syk antisense ODN, or 0.2 μM each of the stem-loop control or the stem-loop Syk antisense ODN) for 2 days, and cDNA was synthesized from total RNA with random hexanucleotide primers. PCR was performed with Syk cDNA as templates with two Syk primers (Syk-H and Syk-M). PCR products were analyzed by Southern hybridization and hybridized bands were visualized by chemiluminescent detection reagents.
as §1, with “PBS.” for “PBS. Mononuclear cells were resuspended in complete medium containing RPMI 1640 (GIBCO BRL, Life Technologies, Inc. Gaithersburg, Md.) with 10% heat-inactivated FCS and 2 mM L-glutamine. Cells were allowed to adhere at 37° C. onto tissue culture flasks precoated with FCS. After 45 to 90 min non-adherent cells were removed with extensive washing in HBSS. Cells were harvested by vigorous agitation. The yield of monocytes ranged from 2–6×10^7 cells/500 ml of blood. Monocytes were routinely more than 98% viable judged by trypan blue exclusion. Isolated monocytes were maintained in RPMI 1640 supplemented with L-glutamine (2 mM) and 10% heat-inactivated FCS at 37° C. with 5% CO2. Oligodeoxynucleotides treatment of cells. 1×10^5 Monocytes were incubated with ODN-liposome complexes containing 2 μg/ml of LIPOFECTAMINE and 0.5 μM of the linear control, 0.5 μM of the linear Syk antisense ODN or 0.1 μM of the stem-loop control, 0.1 μM of the stem-loop Syk antisense ODN in 0.3 ml of RPMI 1640 medium without FCS in a 24-well plate (Falcon; Becton Dickinson Labware, Lincoln Park, N.J.) at 37° C. for 4 h. Medium was added to a 1 ml final volume with RPMI 1640 containing 10% FCS and cells were then incubated at 37° C. for 2 days.”

[3] = Stability of antisense ODNs to serum nucleases; assay type: in vitro ADME; details: for resistance to serum nucleases: modified with phosphorothioate
[4] = system: COS-1 cells transfected with FcγRIIIA-α/γ; assay: Phagocytosis of IgG-sensitized RBCs (EA) by transfected COS-1 cells; assay type: cell-based; details: for phagocytic activity restored after washing: pretreated 400 μM
Method: (§2) FcγRIIIA isoforms, FcγRIIIA-γγ, FcγRIIIA-ζζ, were generated by cotransfection of COS-1 cells with cDNA of γ or ζ as well as cDNA of α. Transfections of cDNAs were carried out with a modified DEAE-Dextran method. Briefly, 300,000 COS-1 cells were seeded on 35 mm well plates 24 hours prior to transfection. Plates of 70 to 80% confluence were washed twice and incubated for 30 minutes with Dulbeco's Modification of Eagle's Medium (DMEM, Gibco BRL, Grand Island, N.Y.) before transfection. Four μg of plasmid DNA (0.5 μg/μl) was slowly added to 1 ml of a transfection buffer containing Nu medium (DMEM with 10% of NuSerum [Collaborative Biomedical, Two Oak Park, Bedford, Mass.], 1 mg/ml of DEAE Dextran and 100 μM chloroquine. The transfection buffer containing DNA was added to COS-1 cells with incubation for 4 hours at 37° C. Cells were then shocked with 10%. DMSO in phosphate buffered saline (PBS) for 2 minutes, washed twice with DMEM and grown in NuSerum supplemented DMEM. Cells were studied 48 hours following transfection.
(§3) Binding and pragocytosis of IgG-sensitized RSCs (EA): Sterile sheep red blood cells (10^9/ml) in calcium and magnesium-free PBS were sensitized by incubation with an equal volume of a subagglutinating titer of rabbit anti-sheep RBC antibody (Cappel Laboratories, Cochranville, Pa.). The IgG-sensitized RBCs (EA) were washed twice with PBS and resuspended to a final concentration of 10^9/ml for overlaying on transfected COS-1 cells. Cells were examined for rosetting (>10 EA per COS-1 cell) and phagocytosis as described previously (Indik et al, J. Clin. Invest. 88:A66 (1991)). For the analysis of phagocytosis, COS-1 cells bound with EA (after three washings) were subjected to a brief hypotonic shock (35 seconds) with hypotonic PBS to remove surface bound EA. The cells were then stained with Wright-Giemsa staining solutions, and phagocytosis (ingested EA) was determined by light microscopy. Results obtained were analyzed by Student's T-test.

[5] = system: COS-1 cells transfected with FcγRIIIA-α/γ; assay: Binding (rosetting) of EA by transfected COS-1 cells; assay type: cell-based
Method: as §2, §3

[6] = ODN 0.2 μM, LIPOFECTAMINE complexes, 2 days
[7] = ODN 1 μM, LIPOFECTAMINE complexes, 2 days

Compound: 5′ - GGGGGGGCTGTCAGCCATGCCGTGTCTTGTCTTTGTCGCTTCTTGAGGAGCCCCCC C-3′ (SEQ ID NO:10) (antisense GGGGGGGCTGTCAGCCATGCCGTGTCTTGTCTTTGTCGCTTCTTGAGGAGCCCCCCC; DNA, backbone and methylation of C not given here; stem-loop hairpin, phosphorothioates at both termini, further chemistry not fully specified) [stem-loop Syk antisense ODN, 57 mer stem-loop ODN complementary to three target sites of human Syk mRNA, phosphorothioate-modified termini]
- reduction of the phagocytic signal compared with a mixture of three linear antisense oligonucleotides [1]: more dramatically
- reduction in phagocytosis (phagocytic index) [1, 6]: 89%
- phagocytic index (PI) [1, 6]: 24±4.2
- effect on Syk mRNA ([2]; ODN 0.2 μM): completely eliminated
- stability when complexed with liposomes ([3]; complexed with liposomes): markedly improved
- resistance to serum nucleases [3]: partial resistance
- stability in serum ([3]; with phosphorothioate modifications): exceptional stability

Compound: 5′ -ATGGAATCATCTTGGGCATTCATTCGTTCCTCAAAGAAGAATATGAA- 3′ (SEQ ID NO:12) (listed as DNA, chemistry not given here) [stem-loop control, Stem-loop 61 mer scrambled control ODN]
- effect on FcγRIIA mediated phagocytosis ([1]; ODN 0.2 μM): did not significantly affect
- effect on Syk mRNA ([2]; ODN 0.2 μM): did not reduce

Compound: 5′-CGCTGTCAGCCATGCCG-3′ (SEQ ID NO:9) (DNA, backbone and methylation of C not given here; phosphorothioate linkages at both 5' and 3' termini, further chemistry not fully specified) [linear Syk antisense ODN, Linear 17 mer, phosphorothioate-modified termini, targets area surrounding translation initiation codon of human Syk mRNA]
- Phagocytosis reduced by (phagocytic index) [1, 7]: 49%
- phagocytic index (PI) [1, 7]: 113±12.3
- effect on Syk mRNA ([2]; ODN 1.0 μM): substantially reduced
- resistance to serum nucleases [3]: partial resistance

Compound: 5′-GCCCAAGATGATTCCAG-3′ (SEQ ID NO:11) (phosphorothioate linkages at both termini, number not given here) [linear control]
- effect on FcγRIIA mediated phagocytosis ([1]; ODN 1 μM): did not significantly affect
- effect on Syk mRNA ([2]; ODN 1.0 μM): did not reduce

Compound: N#CC(C#N)=Cc1ccc(O)c(O)c1 [Tyr23, tyrphostin 23]
- PI (Phagocytic Index) ([4]; Tyr23 25 μM): 68 ± 4
- PI (Phagocytic Index) ([4]; Tyr23 50 μM): 26 ± 7
- PI (Phagocytic Index) ([4]; Tyr23 100 μM): 16 ± 6
- PI (Phagocytic Index) ([4]; Tyr23 200 μM): 1.2 ± 1
- PI (Phagocytic Index) ([4]; Tyr23 400 μM): 0
- PI (Phagocytic Index) ([4]; Tyr23 400 μM + washing (3 hr wash)): 63 ± 7
- IC50 ([4]; dose dependent, p<0.01, read-out: concentration giving 50% inhibition of phagocytosis): 25 µM
- concentration giving complete inhibition of phagocytosis ([4]; p<0.01): 200 to 400 µM
- phagocytic activity restored after washing ([4]; 3 hr wash): partially
- phagocytic activity restored after washing ([4]; overnight wash (data not shown)): completely
- viability of transfectants on inhibition of phagocytosis ([4]; pretreated with 400 μM followed by washing): not associated with reduction in viability
- effect on binding of EA [5]: did not affect
- Rosetting (% Cells) ([5]; Tyr23 25 μM): 52 ± 9 % Cells
- Rosetting (% Cells) ([5]; Tyr23 50 μM): 52 ± 8 % Cells
- Rosetting (% Cells) ([5]; Tyr23 100 μM): 49 ± 7 % Cells
- Rosetting (% Cells) ([5]; Tyr23 200 μM): 47 ± 5 % Cells
- Rosetting (% Cells) ([5]; Tyr23 400 μM): 48 ± 3 % Cells
- Rosetting (% Cells) ([5]; Tyr23 400 μM + washing): 44 ± 6 % Cells
